From PubChem BioAssay AID248 (DTP/NCI, 2004)
“And” between values parts separate entries of the source, which are not always exact repeats. Equal entries are not always repeated. Toxic doses and inconclusive results are not listed. No stated cut-off is given here; in the data, active means T/C of 150% or more; inactive means T/C below 125%.

Tested on: L1210 leukemia ip in BDF1 mice, survival T/C
Assay: NCI In Vivo Anticancer Drug Screen. Data for tumor model L1210 Leukemia (intraperitoneal) in B6D2F1 (BDF1) mice
Conditions: endpoint: mean survival time, higher = longer survival
In short: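 Transplanted-tumor mice were given test agent; controls received vehicle only. Survival readings from the two groups were divided (treated over control).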

[1] = dose: 50.0 mg/kg/injection, schedule: Q04DX002 (ip), vehicle: Klucel (hydroxypropylcellulose) (HPC)
[2] = dose: 100.0 mg/kg/injection, schedule: Q04DX002 (ip), vehicle: Klucel (hydroxypropylcellulose) (HPC)
[3] = dose: 200.0 mg/kg/injection, schedule: Q04DX002 (ip), vehicle: Klucel (hydroxypropylcellulose) (HPC)
[4] = dose: 400.0 mg/kg/injection, schedule: Q04DX002 (ip), vehicle: Klucel (hydroxypropylcellulose) (HPC)
[5] = dose: 100.0 mg/kg/injection, schedule: Q01DX009 (ip), vehicle: Klucel (hydroxypropylcellulose) (HPC)
[6] = dose: 200.0 mg/kg/injection, schedule: Q01DX009 (ip), vehicle: Klucel (hydroxypropylcellulose) (HPC)
[7] = dose: 50.0 mg/kg/injection, schedule: Q01DX001 (ip), vehicle: saline
[8] = dose: 100.0 mg/kg/injection, schedule: Q01DX001 (ip), vehicle: saline
[9] = dose: 200.0 mg/kg/injection, schedule: Q01DX001 (ip), vehicle: saline
[10] = dose: 100.0 mg/kg/injection, schedule: Q04DX003 (ip), vehicle: saline with Tween-80
[11] = dose: 200.0 mg/kg/injection, schedule: Q04DX003 (ip), vehicle: saline with Tween-80

Measured: T/C

NC(=S)N/N=C/c1[nH]c(=O)[nH]c(=O)c1Br
inactive: dose: 100.0 mg/kg/injection, schedule: Q01DX001 (ip), vehicle: saline with Tween-80 93 % of control | dose: 200.0 mg/kg/injection, schedule: Q01DX001 (ip), vehicle: saline with Tween-80 97 % of control | dose: 400.0 mg/kg/injection, schedule: Q01DX001 (ip), vehicle: saline with Tween-80 103 % of control

CCCCCCCCCCCCCCCCCC1=NCCN1
inactive: dose: 6.25 mg/kg/injection, schedule: Q01DX009 (ip), vehicle: Klucel (hydroxypropylcellulose) (HPC) 95 % of control | dose: 12.5 mg/kg/injection, schedule: Q01DX009 (ip), vehicle: Klucel (hydroxypropylcellulose) (HPC) 87 % of control | dose: 25.0 mg/kg/injection, schedule: Q01DX009 (ip), vehicle: Klucel (hydroxypropylcellulose) (HPC) 92 % of control | dose: 25.0 mg/kg/injection, schedule: Q04DX002 (ip), vehicle: Klucel (hydroxypropylcellulose) (HPC) 103 % of control | dose: 50.0 mg/kg/injection, schedule: Q01DX001 (ip), vehicle: other 91 % of control | [1] 103 % of control | dose: 100.0 mg/kg/injection, schedule: Q01DX001 (ip), vehicle: other 97 % of control | [2] 95 % of control and 98 % of control | dose: 200.0 mg/kg/injection, schedule: Q01DX001 (ip), vehicle: other 89 % of control | dose: 400.0 mg/kg/injection, schedule: Q01DX001 (ip), vehicle: other 97 % of control

CCCCOP(=O)(/C=C/c1ccc([N+](=O)[O-])cc1)OCCCC
inactive: [2] 97 % of control | [3] 93 % of control | [4] 108 % of control

CSc1ccc(NC(=O)Nc2nccs2)cc1
inactive: dose: 200.0 mg/kg/injection, schedule: Q04DX003 (ip), vehicle: saline sonified 87 % of control | dose: 400.0 mg/kg/injection, schedule: Q04DX003 (ip), vehicle: saline sonified 92 % of control

Nc1cccc(OCCCOc2cccc(N)c2)c1
inactive: dose: 50.0 mg/kg/injection, schedule: Q01DX009 (ip), vehicle: Klucel (hydroxypropylcellulose) (HPC) 96 % of control | [5] 101 % of control | [6] 90 % of control

C1=CC(=P(c2ccccc2)(c2ccccc2)c2ccccc2)C=C1
inactive: dose: 30.0 mg/kg/injection, schedule: Q01DX015 (ip), vehicle: saline 95 % of control | [7] 92 % of control | dose: 60.0 mg/kg/injection, schedule: Q01DX015 (ip), vehicle: saline 89 % of control | [8] 97 % of control | dose: 120.0 mg/kg/injection, schedule: Q01DX015 (ip), vehicle: saline 91 % of control | [9] 98 % of control | dose: 240.0 mg/kg/injection, schedule: Q01DX015 (ip), vehicle: saline 91 % of control | dose: 400.0 mg/kg/injection, schedule: Q01DX001 (ip), vehicle: saline 97 % of control

CN(CCN(N=O)C(N)=O)[N+](=O)[O-]
inactive: dose: 100.0 mg/kg/injection, schedule: Q04DX002 (ip), vehicle: other 98 % of control | dose: 200.0 mg/kg/injection, schedule: Q04DX002 (ip), vehicle: other 94 % of control | dose: 400.0 mg/kg/injection, schedule: Q04DX002 (ip), vehicle: other 109 % of control

Cc1ccc(CCCC(CC(=O)O)C(=O)O)cc1 (configuration not stated)
inactive: dose: 12.5 mg/kg/injection, schedule: Q01DX001 (ip), vehicle: saline with Tween-80 100 % of control | dose: 25.0 mg/kg/injection, schedule: Q01DX001 (ip), vehicle: saline with Tween-80 98 % of control | dose: 50.0 mg/kg/injection, schedule: Q01DX001 (ip), vehicle: saline with Tween-80 88 % of control

COc1ccc(COC(=O)Nc2ccc(Br)cc2)cc1
inactive: [5] 101 % of control | [6] 98 % of control | dose: 400.0 mg/kg/injection, schedule: Q01DX009 (ip), vehicle: Klucel (hydroxypropylcellulose) (HPC) 103 % of control

CCCC=C(CCCC)CCCC
inactive: dose: 100.0 mg/kg/injection, schedule: Q04DX002 (ip), vehicle: saline with Tween-80 87 % of control | dose: 200.0 mg/kg/injection, schedule: Q04DX002 (ip), vehicle: saline with Tween-80 94 % of control

NCC1=NCCN1
inactive: dose: 25.0 mg/kg/injection, schedule: Q04DX002 (ip), vehicle: saline 93 % of control | dose: 50.0 mg/kg/injection, schedule: Q04DX002 (ip), vehicle: saline 97 % of control | dose: 100.0 mg/kg/injection, schedule: Q04DX002 (ip), vehicle: saline 101 % of control | dose: 200.0 mg/kg/injection, schedule: Q04DX002 (ip), vehicle: saline 93 % of control

OC1(c2cccc3ccccc23)CCCCC1
inactive: dose: 50.0 mg/kg/injection, schedule: Q01DX009 (ip), vehicle: saline with Tween-80 100 % of control | dose: 100.0 mg/kg/injection, schedule: Q01DX009 (ip), vehicle: saline with Tween-80 94 % of control | [10] 94 % of control | dose: 200.0 mg/kg/injection, schedule: Q01DX009 (ip), vehicle: saline with Tween-80 103 % of control | [11] 91 % of control

O=C1NC(=O)C(c2ccsc2)(c2cccs2)N1 (configuration not stated)
inactive: dose: 100.0 mg/kg/injection, schedule: Q01DX001 (ip), vehicle: carboxymethylcellulose (CMC) 97 % of control | dose: 200.0 mg/kg/injection, schedule: Q01DX001 (ip), vehicle: carboxymethylcellulose (CMC) 89 % of control | dose: 400.0 mg/kg/injection, schedule: Q01DX001 (ip), vehicle: carboxymethylcellulose (CMC) 100 % of control

CCN(CC)CCCC#N
inactive: [7] 100 % of control | [8] 105 % of control | [9] 102 % of control

O=C(Nc1ccc(C2=NCCN2)c(Cl)c1)c1cccc(C(=O)Nc2ccc(C3=NCCN3)c(Cl)c2)c1
inactive: dose: 15.0 mg/kg/injection, schedule: Q01DX Z (ip), vehicle: carboxymethylcellulose (CMC) 93 % of control | dose: 30.0 mg/kg/injection, schedule: Q01DX Z (ip), vehicle: carboxymethylcellulose (CMC) 86 % of control

COc1ccc(/C=C/c2nccc3ccccc23)cc1OC
inactive: [1] 105 % of control | [2] 102 % of control | [3] 96 % of control and 108 % of control | [4] 89 % of control

COc1cc(OC)c2c(=O)c3ccccc3[nH]c2c1
inactive: [10] 87 % of control | dose: 400.0 mg/kg/injection, schedule: Q04DX003 (ip), vehicle: saline with Tween-80 88 % of control

COC(=O)c1n[nH]c(C)c1N=NN1CCOCC1
inactive: dose: 75.0 mg/kg/injection, schedule: Q01DX001 (ip), vehicle: saline 105 % of control | dose: 150.0 mg/kg/injection, schedule: Q01DX001 (ip), vehicle: saline 103 % of control | dose: 300.0 mg/kg/injection, schedule: Q01DX001 (ip), vehicle: saline 105 % of control

CNC(=O)Oc1ccc(NC(=O)OC)cc1
inactive: [10] 93 % of control | [11] 87 % of control

O=c1c2cc([N+](=O)[O-])cc3c2-c2c4c(cc([N+](=O)[O-])cc14)c(O)c1cc([N+](=O)[O-])cc(c3=O)c21
inactive: dose: 100.0 mg/kg/injection, schedule: Q04DX003 (ip), vehicle: acetone 123 % of control | dose: 200.0 mg/kg/injection, schedule: Q04DX003 (ip), vehicle: acetone 120 % of control | dose: 266.0 mg/kg/injection, schedule: Q04DX003 (ip), vehicle: saline 111 % of control | dose: 400.0 mg/kg/injection, schedule: Q04DX003 (ip), vehicle: saline 116 % of control
